Measurements from patent US6191130A, “Cyclohexane derivatives difunctionalised in 1,4 as ligands of 5T H1A receptors” (Pierre Fabre Medicament, priority 1997, dated 2001).
Read-outs that look alike come from different tables or passages of the source.

How the values were obtained:
α1-adrenergic receptor = experiment: Binding to the α1-adrenergic receptor (displacement of [3H]prazosin, rat cortex); set-up: species or system male Sprague-Dawley rat; settings: mean of at least 3 experimentations
Experimental: (§1) Binding to the 5-HT1A, D2 dopaminergic and α1-adrenergic receptors:
(§2) Brains from male Sprague-Dawley 180-200 g rats [Ico: OFA SD (I.O.P.S. Caw); Iffa Credo, France], maintained at -70° C., were used in all the studies.
(§3) The affinity of the products for the various receptors was determined by displacement of radioactive ligands under the conditions summarized in Table 1.
(§4) The reaction is halted by rapid filtration, under vacuum, through Whatman GF/B filters and the tubes are rinsed with 2×5 ml of Tris-HCl 50 mM, pH 7.4, buffer at 25° C. The radioactivity collected on the filter is analyzed by liquid scintillation after addition of 4 ml of liquid scintillant (Emulsifier Safe, Packard). All the experiments are carried out in triplicate.
(§5) The pKi (-log Ki) values are given in the form of the mean±SEM of at least 3 experimentations (Table 2).

D2 dopaminergic receptor = target: T1, D2 dopaminergic receptor (Rattus norvegicus, UniProt P61169); experiment: Binding to the D2 dopaminergic receptor (displacement of [3H]YM-09151-2, rat striatum); set-up: species or system male Sprague-Dawley rat; settings: read-out: pKi D2 (converted)
T1 construct: Brains from male Sprague-Dawley 180-200 g rats; tissue Iffa Credo, France (animals); host or cells: rat brain striatum
Experimental: as §1, §2, §3, §4
(§6) The inhibition constants (Ki) of the products are estimated from the displacement experimentations by using the EBDA (equilibrium binding data analysis) Radlig Version 4 non linear regression program (Biosoft, Cambridge, UK; McPherson, 1985).
as §5

5-HT1A receptor [1] = target: T2, 5-HT1A receptor (Rattus norvegicus, UniProt P19327); experiment: Binding to the 5-HT1A receptor (displacement of [3H]8-OH-DPAT, rat cortex); set-up: Brains from male Sprague-Dawley 180-200 g rats; tissue Iffa Credo, France (animals); host or cells: rat brain cortex; species or system male Sprague-Dawley rat; settings: read-out: pKi 5-HT1A (converted)
T2 sequence (P19327 1-422): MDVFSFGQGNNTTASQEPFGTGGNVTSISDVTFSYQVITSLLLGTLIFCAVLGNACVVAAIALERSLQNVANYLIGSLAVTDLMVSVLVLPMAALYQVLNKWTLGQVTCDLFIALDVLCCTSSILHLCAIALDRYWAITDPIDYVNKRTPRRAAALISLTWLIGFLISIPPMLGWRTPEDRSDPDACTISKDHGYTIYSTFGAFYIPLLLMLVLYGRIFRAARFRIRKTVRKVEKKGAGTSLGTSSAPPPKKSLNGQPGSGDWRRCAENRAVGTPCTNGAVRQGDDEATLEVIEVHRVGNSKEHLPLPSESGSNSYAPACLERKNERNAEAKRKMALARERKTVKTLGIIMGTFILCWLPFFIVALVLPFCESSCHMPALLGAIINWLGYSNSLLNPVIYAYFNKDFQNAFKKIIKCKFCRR
Experimental: as §1, §2, §3, §4, §6, §5
10 A Assie and Koek, Eur. J.

5-HT1A receptor [2] = target: T2, 5-HT1A receptor; experiment: 5-HT syndrome (serotoninergic syndrome) in the male rat; assay type: in vivo, male rat (Sprague-Dawley); set-up: carried out with the male rat (Sprague-Dawley); from tissue; host or cells: whole living rat (Sprague-Dawley); settings: po
Experimental: The central activity of the compounds of the invention was evaluated by their ability to provoke the 5-HT syndrome, which is characterized by:
an alternating bending and stretching of the forepaws (reciprocal fore-paw treading: FPT)
the retraction of the lower lip (lower lip retraction: LLR)
a position or the ventral surface of the animal is in contact with the ground and the hind paws extended (flat body posture: FBP).
The experiments on the evaluation of the 5-HT syndrome are carried out with the male rat (Sprague-Dawley) according to the technique described by F. C. Colpaert et al. (Drug. Dev. Res., 26, 21-48, 1992) and M. S. Kleven et al. (J.P.E.T., 282, 747-759, 1997).

[3] = Antidepressant activity: Forced swimming test; assay type: in vivo; settings: percentage of animals with significant decrease (p<0.05) in immobility time vs control; po
[4] = FBP, read-out: ED50 FBP (flat body posture)
[5] = FPT, read-out: ED50 FPT (reciprocal fore-paw treading)
[6] = LLR, read-out: ED50 LLR (lower lip retraction)

T1 sequence (P61169 whole entry): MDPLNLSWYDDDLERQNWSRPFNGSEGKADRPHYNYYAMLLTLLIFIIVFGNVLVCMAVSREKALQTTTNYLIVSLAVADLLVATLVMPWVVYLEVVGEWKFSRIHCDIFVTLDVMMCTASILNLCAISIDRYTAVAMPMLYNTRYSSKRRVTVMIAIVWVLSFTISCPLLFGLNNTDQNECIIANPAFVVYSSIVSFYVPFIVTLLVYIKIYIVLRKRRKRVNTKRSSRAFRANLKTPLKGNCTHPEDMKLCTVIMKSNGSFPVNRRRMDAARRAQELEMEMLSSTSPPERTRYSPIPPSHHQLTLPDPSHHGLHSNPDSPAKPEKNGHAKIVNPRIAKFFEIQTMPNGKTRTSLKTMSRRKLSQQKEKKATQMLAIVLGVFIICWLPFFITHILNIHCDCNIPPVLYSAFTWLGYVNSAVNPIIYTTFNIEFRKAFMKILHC

Row | Compound | pKi α1 (α1-adrenergic receptor) | Ki (D2 dopaminergic receptor) [nM] | Ki (5-HT1A receptor [1]) [nM] | ED50 (5-HT1A receptor [2]; [4]) [mg/kg] | ED50 (5-HT1A receptor [2]; [5]) [mg/kg] | ED50 (5-HT1A receptor [2]; [6]) [mg/kg] | ED50 [3] [mg/kg]
1 | Cn1nc(N(C)[C@H]2CC[C@H](N3CCN(c4cccc(Cl)c4)CC3)CC2)c(=O)n(C)c1=O [Compound 19, Trans-6-({4-[4-(3-Chlorophenyl)Piperazin-1-Yl]Cyclohexyl}Methylamino)-2,4-Dimethyl-2H-[1,2,4]Triazine-3,5-Dione] | 7.86 | > 10000 | 0.195 | – | – | – | –
2 | Cn1ncc(O[C@H]2CC[C@H](N3CCN(c4ncc(F)cn4)CC3)CC2)nc1=O [Compound 15, Trans-2-Methyl-5-[4-[4-(5-Fluoropyrimidin-2-Yl)Piperazin-1-yl]Cyclohexyloxy]-2H-[1,2,4]Triazin-3-One] | – | – | – | 1.25 | > 2.5 | 0.31 | –
3 | Cc1cc(C)nc(N2CCN([C@H]3CC[C@H](Oc4cnn(C)c(=O)n4)CC3)CC2)n1 [Compound 11, Trans-2-Methyl-5-[4-[4-(4,6-Dimethyl-Pyrimidin-2-Yl)Piperazin-1-Yl]Cyclohexyloxy]-2H-[1,2,4]triazin-3-one] | 5.72 | > 10000 | 0.251 | 0.02 | 0.08 | 0.02 | 0.08
4 | Cn1c(=O)cnn([C@H]2CC[C@H](N3CCN(c4ncccn4)CC3)CC2)c1=O [Compound 4, Trans-4-Methyl-2-[4-(4-Pyrimidin-2-Yl-Piperazin-1-Yl)Cyclohexyl]-2H-[1,2,4]Triazine-3,5-Dione] | < 5.0 | > 10000 | 3.72 | 1.25 | 1.25 | 0.31 | 1.25
5 | Cn1nc(N[C@H]2CC[C@H](N3CCN(c4cccc(Cl)c4)CC3)CC2)c(=O)n(C)c1=O [Compound 17, trans-6-{4-[4-(3-Chlorophenyl)piperazin-1-yl]cyclohexylamino}-2,4-dimethyl-2H-[1,2,4]triazine-3,5-dione] | 7.74 | 603 | 0.398 | – | – | – | –
6 | Cn1ncc(O[C@H]2CC[C@H](N3CCN(c4nccc(Cl)n4)CC3)CC2)nc1=O [Compound 12, Trans-2-Methyl-5-[4-[4-(4-Chloropyrimidin-2-Yl)Piperazin-1-Yl]Cyclohexyloxy]-2H-[1,2,4]Triazin-3-One] | 6.21 | > 10000 | 0.288 | 0.08 | 0.08 | 0.08 | 0.74
7 | Cc1ccnc(N2CCN([C@H]3CC[C@H](n4ncc(=O)n(C)c4=O)CC3)CC2)n1 [Compound 6, Trans-4-Methyl-2-[4-[4-(4-Methylpyrimidin-2-Yl)Piperazin-1-Yl]Cyclohexyl]-2H-[1,2,4]triazine-3,5-dione] | 6.10 | > 10000 | 0.813 | 0.08 | 0.08 | 0.08 | –
8 | Cn1ncc(O[C@H]2CC[C@H](N3CCN(c4ncccn4)CC3)CC2)nc1=O [Compound 9, trans-2-Methyl-5-[4-(4-pyrimidin-2-yl-piperizin-1-yl)cyclohexyloxy]-2H-[1,2,4]triazin-3-one] | < 5.0 | > 10000 | 0.708 | 0.08 | 0.31 | 0.08 | 0.31
9 | Cc1cc(C)nc(N2CCN([C@H]3CC[C@H](n4ncc(=O)n(C)c4=O)CC3)CC2)n1 [Compound 5, trans-4-Methyl-2-[4-[4-(4,6-dimethylpyrimidin-2-yl)piperizin-1-yl]cyclohexyl]-2H-[1,2,4]triazine-3,5-dione] | 5.89 | > 10000 | 0.603 | 0.08 | 0.08 | < 0.04 | 0.31
10 | Cn1ncc(O[C@H]2CC[C@H](NCC3COc4ccccc4O3)CC2)nc1=O (relative stereo) [Compound 16, Trans-5-[4-[(2,3-Dihydrobenzo[1,4]Dioxin-2-Ylmethyl)Amino]Cyclohexyloxy]-2-Methyl-2H-[1,2,4]Triazin-3-One] | – | – | 0.166 | 0.31 | > 2.5 | 0.08 | –
11 | Cn1ncc(O[C@H]2CC[C@H](N3CCN(c4nccc(C(F)(F)F)n4)CC3)CC2)nc1=O [Compound 14, Trans-2-Methyl-5-[4-[4-(4-Trifluoro-Methylpyrimidin-2-Yl)Piperazin-1-Yl]Cyclohexyloxy]-2H-[1,2,4]Triazin-3-One] | – | – | – | 0.31 | 0.31 | 0.08 | –
12 | O=C1CC2(CCCC2)CC(=O)N1CCCCN1CCN(c2ncccn2)CC1 [Buspirone, reference compound] | 6.19 | – | – | – | > 40 | 2.5 | > 160
13 | Cc1ccnc(N2CCN([C@H]3CC[C@H](Oc4cnn(C)c(=O)n4)CC3)CC2)n1 [Compound 10, trans-2-Methyl-5-[4-[4-(4-methylpyrimidin-2-yl)piperazin-1-yl]cyclohexyloxy]-2H-[1,2,4]triazin-3-one] | 5.95 | > 10000 | 0.251 | 0.08 | 0.08 | 0.02 | 0.08
14 | COc1ccnc(N2CCN([C@H]3CC[C@H](Oc4cnn(C)c(=O)n4)CC3)CC2)n1 [Compound 13, Trans-2-Methyl-5-[4-[4-(4-Methoxypyrimidin-2-Yl)Piperazin-1-yl]Cyclohexyloxy]-2H-[1,2,4]triazin-3-One] | 6.65 | > 10000 | 0.525 | 0.31 | 0.31 | 0.08 | –
15 | O=C(NCCN1CCN(c2cccc3c2OC[C@H](CO)O3)CC1)c1ccc(F)cc1 [Flesinoxan, reference compound] | 6.50 | 89.1 | 1.23 | 1.25 | 5 | 1.25 | 1.25
